According to patent US20200397818A1, “Multi-Mineral Supplement for Improved Bone Density” (priority 2017, published 2020):

System: human mescenchymal stem cell (hMSCs)
Details: MTT
Protocol: The MTT colorimetric cell viability provides a straightforward and quantifiable method for determining cell viability in a wide variety of cell types. An MTT assay was used to determine the cytotoxicity of Mg, Sr, Cu, and/or Zn ions in human mescenchymal stem cells. In a typical assay 2.8×10^4 cells/cm^2 human mescenchymal stem cell (hMSCs) were cultured in a low glucose DMEM culture medium supplemented with 10% (v/v) fetal bovine serum (FBS, Biowest, France), antibiotics (100 U/ml of penicillin and 100 μg/ml of streptomycin), and 2 mM L-glutamine using 96-well tissue culture plates. After one day of cell culture, testing solutions with a range of concentrations (Table 1) of different potential ions were added to the wells. The MTT solution was prepared by adding thiazolyl blue tetrazolium bromide powder to the phosphate buffered saline (PBS, OXOID Limited, England) and 10 μL of 5 mg/mL MTT solution was added on the next day. 100 μL of 10% sodium dodecyl sulfate (SDS, Sigma, USA) in 0.01 M hydrochloric acid was added to each well after four hours of culturing and incubated at 37° C. in an atmosphere of 5% CO2 and 95% air overnight. Finally, the absorbance was recorded by a multimode detector at a wavelength of 570 nm with a reference wavelength of 640 nm. Cell viability was quantified from the absorbance readings.

Structure (SMILES): O=S(=O)([O-])[O-].[Cu+2] [Cu ions, CuSO4]
- ion concentration with loss of viability (ion tested independently): ≥ 25 ppm

Structure (SMILES): [Cl-].[Cl-].[Mg+2] [Mg ion, MgCl2]
- ion concentration above which most of the cells became non-viable (ion tested independently): exceeded 1000 ppm
- ion concentration above which viability began to decrease (ion tested independently): exceeded 400 ppm

Structure (SMILES): [Cl-].[Cl-].[Sr+2] [Sr ion, SrCl2]
- cell viability relative to control cells (ion concentrations of 100 to 400 ppm): 115%
- cell viability (treatment with up to 1,000 ppm): ~100%

Structure (SMILES): [Cl-].[Cl-].[Zn+2] [Zn ions, ZnCl2]
- ion concentration above which significant cell death was found (ion tested independently): exceeded 1 ppm
